Experimental data taken from patent US12065436B2, “Cardiac sarcomere inhibitors” (Cytokinetics, Inc., priority 2018, dated 2024).

Target: bovine cardiac myofibrils (full-length cardiac myosin ATPase in the native sarcomere) (Bos taurus (Bovine), UniProt Q9BE39)
Assay: Skinned bovine cardiac myofibril ATPase assay (PK/LDH-coupled)
Type: biochemical
Conditions: Ca2+ activating to 75% of maximal rate; for CDMF75 IC15: concentration giving 15% inhibition; for IC50: read-out: CDMF75 IC50
Procedure, shortened: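 Inhibition of steady-state ATPase read at 340 nm through a PK/LDH-coupled NADH system (0.5 mM NADH, 1.5 mM PEP). Detergent-skinned bovine cardiac myofibrils, 1 mg/mL, were tested at pH 6.8 in PIPES/MgCl2 with 50 μM ATP and calcium adjusted to give pCa50 or pCa75 activation.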

bovine cardiac myofibrils (full-length cardiac myosin ATPase in the native sarcomere), sequence (Q9BE39 whole entry): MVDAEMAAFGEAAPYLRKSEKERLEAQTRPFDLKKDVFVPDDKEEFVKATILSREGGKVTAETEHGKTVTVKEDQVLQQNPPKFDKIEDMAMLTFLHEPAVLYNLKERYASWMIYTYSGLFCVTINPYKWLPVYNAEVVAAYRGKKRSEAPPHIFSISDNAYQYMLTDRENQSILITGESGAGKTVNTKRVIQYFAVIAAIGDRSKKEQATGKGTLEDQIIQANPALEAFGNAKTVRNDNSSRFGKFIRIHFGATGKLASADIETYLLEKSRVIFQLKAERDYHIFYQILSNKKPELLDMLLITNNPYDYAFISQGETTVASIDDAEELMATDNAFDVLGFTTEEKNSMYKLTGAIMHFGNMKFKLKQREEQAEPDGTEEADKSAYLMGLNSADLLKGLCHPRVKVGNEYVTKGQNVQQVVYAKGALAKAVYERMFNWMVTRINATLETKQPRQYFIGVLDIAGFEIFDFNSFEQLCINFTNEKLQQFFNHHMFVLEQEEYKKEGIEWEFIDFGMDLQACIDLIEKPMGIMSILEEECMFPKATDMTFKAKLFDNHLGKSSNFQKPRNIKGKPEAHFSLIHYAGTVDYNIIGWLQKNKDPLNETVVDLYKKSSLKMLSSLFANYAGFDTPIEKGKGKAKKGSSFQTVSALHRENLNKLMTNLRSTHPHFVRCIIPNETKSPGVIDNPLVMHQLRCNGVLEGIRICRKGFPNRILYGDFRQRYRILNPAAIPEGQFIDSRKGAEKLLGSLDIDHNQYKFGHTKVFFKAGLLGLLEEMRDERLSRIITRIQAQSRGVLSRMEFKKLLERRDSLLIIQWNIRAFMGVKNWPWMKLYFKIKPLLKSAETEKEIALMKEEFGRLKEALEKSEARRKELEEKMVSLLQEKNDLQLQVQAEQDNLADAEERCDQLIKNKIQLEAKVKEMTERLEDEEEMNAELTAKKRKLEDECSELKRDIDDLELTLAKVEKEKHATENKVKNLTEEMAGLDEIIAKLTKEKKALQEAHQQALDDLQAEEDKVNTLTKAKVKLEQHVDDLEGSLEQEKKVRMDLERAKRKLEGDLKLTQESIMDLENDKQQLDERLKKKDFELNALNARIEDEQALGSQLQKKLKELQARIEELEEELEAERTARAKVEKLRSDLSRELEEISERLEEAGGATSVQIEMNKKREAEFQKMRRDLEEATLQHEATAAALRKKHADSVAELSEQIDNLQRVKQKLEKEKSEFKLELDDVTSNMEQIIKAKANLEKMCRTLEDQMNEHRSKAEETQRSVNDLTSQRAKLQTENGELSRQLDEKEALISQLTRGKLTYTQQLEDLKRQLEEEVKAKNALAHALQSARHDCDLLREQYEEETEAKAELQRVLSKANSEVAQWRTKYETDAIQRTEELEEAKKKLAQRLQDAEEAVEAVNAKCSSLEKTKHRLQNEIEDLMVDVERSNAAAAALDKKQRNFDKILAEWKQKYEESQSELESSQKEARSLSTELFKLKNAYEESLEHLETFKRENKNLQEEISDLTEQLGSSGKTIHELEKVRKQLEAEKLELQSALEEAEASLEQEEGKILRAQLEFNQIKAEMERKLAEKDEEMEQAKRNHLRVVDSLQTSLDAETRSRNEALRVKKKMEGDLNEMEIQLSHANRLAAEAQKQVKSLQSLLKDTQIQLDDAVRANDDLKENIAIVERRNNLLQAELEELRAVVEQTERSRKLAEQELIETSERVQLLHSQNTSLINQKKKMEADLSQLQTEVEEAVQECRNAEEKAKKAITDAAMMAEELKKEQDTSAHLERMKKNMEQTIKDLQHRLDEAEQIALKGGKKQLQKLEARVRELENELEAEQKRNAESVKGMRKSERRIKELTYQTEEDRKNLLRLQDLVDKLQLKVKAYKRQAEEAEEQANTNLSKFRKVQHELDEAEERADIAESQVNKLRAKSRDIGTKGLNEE
bovine cardiac myofibrils (full-length cardiac myosin ATPase in the native sarcomere), sequence (P85100 whole entry partner): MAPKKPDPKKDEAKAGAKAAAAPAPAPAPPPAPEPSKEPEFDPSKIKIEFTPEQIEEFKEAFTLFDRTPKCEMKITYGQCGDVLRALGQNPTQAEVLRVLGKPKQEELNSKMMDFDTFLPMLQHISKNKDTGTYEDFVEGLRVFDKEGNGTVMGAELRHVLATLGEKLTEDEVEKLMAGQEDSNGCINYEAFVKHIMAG
bovine cardiac myofibrils (full-length cardiac myosin ATPase in the native sarcomere), sequence (Q3SZE5 whole entry partner): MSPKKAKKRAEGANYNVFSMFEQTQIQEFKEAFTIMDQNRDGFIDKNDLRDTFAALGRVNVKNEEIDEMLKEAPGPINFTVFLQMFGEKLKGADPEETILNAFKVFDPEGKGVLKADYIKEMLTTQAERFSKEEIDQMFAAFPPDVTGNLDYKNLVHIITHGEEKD

CDMF75 IC15	IC50	SMILES
400 nM	1200 nM	CCc1nc(-c2ccc3c(c2)CC[C@H]3NC(=O)c2c[nH]nc2C)no1 [Compound 398, (R)-N-(5-(5-ethyl-1,2,4-oxadiazol-3-yl)-2,3-dihydro-1H-inden-1-yl)-3-methyl-1H-pyrazole-4-carboxamide]
300 nM	1000 nM	Cc1n[nH]cc1C(=O)N[C@@H]1CCc2cc(-c3noc(C4CCC4)n3)ccc21 [Compound 399, (R)-N-(5-(5-cyclobutyl-1,2,4-oxadiazol-3-yl)-2,3-dihydro-1H-inden-1-yl)-3-methyl-1H-pyrazole-4-carboxamide]
800 nM	2800 nM	Cc1nc(-c2ccc3c(c2)CC[C@H]3NC(=O)c2c[nH]nc2C)no1 [Compound 400, (R)-3-methyl-N-(5-(5-methyl-1,2,4-oxadiazol-3-yl)-2,3-dihydro-1H-inden-1-yl)-1H-pyrazole-4-carboxamide]
900 nM	3000 nM	[2H]C([2H])([2H])c1nc(-c2ccc3c(c2)CC[C@H]3NC(=O)c2c[nH]nc2C)no1 [Compound 401, (R)-3-methyl-N-(5-(5-(methyl-d3)-1,2,4-oxadiazol-3-yl)-2,3-dihydro-1H-inden-1-yl)-1H-pyrazole-4-carboxamide]
1000 nM	3800 nM	Cc1cc(-c2ccc3c(c2)CC[C@H]3NC(=O)c2cnn(C)c2)no1 [Compound 402, (R)-1-methyl-N-(5-(5-methylisoxazol-3-yl)-2,3-dihydro-1H-inden-1-yl)-1H-pyrazole-4-carboxamide]
400 nM	1200 nM	Cc1cc(-c2ccc3c(c2)CC[C@H]3NC(=O)c2ccnn2C)no1 [Compound 403, (R)-1-methyl-N-(5-(5-methylisoxazol-3-yl)-2,3-dihydro-1H-inden-1-yl)-1H-pyrazole-5-carboxamide]
400 nM	1200 nM	CCc1cc(-c2ccc3c(c2)CC[C@H]3NC(=O)c2ccnc(C)c2)no1 [Compound 404, (R)-N-(5-(5-ethylisoxazol-3-yl)-2,3-dihydro-1H-inden-1-yl)-2-methylisonicotinamide]
600 nM	2300 nM	CCc1nc(-c2ccc3c(c2)CC[C@H]3NC(C)=O)no1 [Compound 405, (R)-N-(5-(5-ethyl-1,2,4-oxadiazol-3-yl)-2,3-dihydro-1H-inden-1-yl)acetamide]
1900 nM	7700 nM	CC(=O)N[C@@H]1CCc2cc(-c3noc(C4CCC4)n3)ccc21 [Compound 406, (R)-N-(5-(5-cyclobutyl-1,2,4-oxadiazol-3-yl)-2,3-dihydro-1H-inden-1-yl)acetamide]
3200 nM	13800 nM	CC(=O)N[C@@H]1CCc2cc(-c3noc(C)n3)ccc21 [Compound 407, (R)-N-(5-(5-methyl-1,2,4-oxadiazol-3-yl)-2,3-dihydro-1H-inden-1-yl)acetamide]
2800 nM	12800 nM	[2H]C([2H])([2H])c1nc(-c2ccc3c(c2)CC[C@H]3NC(C)=O)no1 [Compound 408, (R)-N-(5-(5-(methyl-d3)-1,2,4-oxadiazol-3-yl)-2,3-dihydro-1H-inden-1-yl)acetamide]
200 nM	700 nM	Cc1ncoc1C(=O)N[C@@H]1CCc2cc(-c3noc(C4CCC4)n3)ccc21 [Compound 409, (R)-N-(5-(5-cyclobutyl-1,2,4-oxadiazol-3-yl)-2,3-dihydro-1H-inden-1-yl)-4-methyloxazole-5-carboxamide]
900 nM	3500 nM	Cc1ncc(C(=O)N[C@@H]2CCc3cc(-c4noc(C5CCC5)n4)ccc32)o1 [Compound 410, (R)-N-(5-(5-cyclobutyl-1,2,4-oxadiazol-3-yl)-2,3-dihydro-1H-inden-1-yl)-2-methyloxazole-5-carboxamide]
500 nM	1800 nM	Cc1cc(C(=O)N[C@@H]2CCc3cc(-c4noc(C5CCC5)n4)ccc32)ccn1 [Compound 412, (R)-N-(5-(5-cyclobutyl-1,2,4-oxadiazol-3-yl)-2,3-dihydro-1H-inden-1-yl)-2-methylisonicotinamide]
400 nM	1500 nM	CCc1cc(-c2ccc3c(c2)CC[C@H]3NC(=O)c2cnn(C)c2)no1 [Compound 413, (R)-N-(5-(5-ethylisoxazol-3-yl)-2,3-dihydro-1H-inden-1-yl)-1-methyl-1H-pyrazole-4-carboxamide]
200 nM	600 nM	CCc1cc(-c2ccc3c(c2)CC[C@H]3NC(=O)c2ccnn2C)no1 [Compound 414, (R)—N-(5-(5-ethylisoxazol-3-yl)-2,3-dihydro-1H-inden-1-yl)-1-methyl-1H-pyrazole-5-carboxamide]
500 nM	1700 nM	CCc1cc(-c2ccc3c(c2)CC[C@H]3NC(=O)c2cnc(C)o2)no1 [Compound 415, (R)-N-(5-(5-ethylisoxazol-3-yl)-2,3-dihydro-1H-inden-1-yl)-2-methyloxazole-5-carboxamide]

CDMF75 IC15	IC50	SMILES
1200 nM	4200 nM	Cc1cc(-c2ccc3c(c2)CC[C@H]3NC(=O)c2cnc(C)o2)no1 [Compound 416, (R)-2-methyl-N-(5-(5-methylisoxazol-3-yl)-2,3-dihydro-1H-inden-1-yl)oxazole-5-carboxamide]
200 nM	600 nM	CCc1cc(-c2ccc3c(c2)CC[C@H]3NC(=O)c2ocnc2C)no1 [Compound 417, (R)-N-(5-(5-ethylisoxazol-3-yl)-2,3-dihydro-1H-inden-1-yl)-4-methyloxazole-5-carboxamide]
300 nM	1200 nM	Cc1cc(-c2ccc3c(c2)CC[C@H]3NC(=O)c2ocnc2C)no1 [Compound 418, (R)-4-methyl-N-(5-(5-methylisoxazol-3-yl)-2,3-dihydro-1H-inden-1-yl)oxazole-5-carboxamide]
1200 nM	4700 nM	CC(=O)N[C@@H]1CCc2cc(-c3noc(C4CC4)n3)ccc21 [Compound 419, (R)-N-(5-(5-cyclopropyl-1,2,4-oxadiazol-3-yl)-2,3-dihydro-1H-inden-1-yl)acetamide]
300 nM	800 nM	CCc1cc(-c2ccc3c(c2)OC[C@H]3NC(=O)c2ccnn2C)no1 [Compound 421, (S)-N-(6-(5-ethylisoxazol-3-yl)-2,3-dihydrobenzofuran-3-yl)-1-methyl-1H-pyrazole-5-carboxamide]
400 nM	1500 nM	CCc1cc(-c2ccc3c(c2)OC[C@H]3NC(=O)c2cnc(C)o2)no1 [Compound 422, (S)-N-(6-(5-ethylisoxazol-3-yl)-2,3-dihydrobenzofuran-3-yl)-2-methyloxazole-5-carboxamide]
300 nM	1200 nM	CCc1cc(-c2ccc3c(c2)OC[C@H]3NC(=O)c2cnn(C)c2)no1 [Compound 423, (S)—N-(6-(5-ethylisoxazol-3-yl)-2,3-dihydrobenzofuran-3-yl)-1-methyl-1H-pyrazole-4-carboxamide]
200 nM	600 nM	CCc1cc(-c2ccc3c(c2)OC[C@H]3NC(=O)c2ocnc2C)no1 [Compound 424, (S)-N-(6-(5-ethylisoxazol-3-yl)-2,3-dihydrobenzofuran-3-yl)-4-methyloxazole-5-carboxamide]
300 nM	1200 nM	CCc1cc(-c2ccc3c(c2)OC[C@H]3NC(=O)c2ccnc(C)c2)no1 [Compound 425, (S)-N-(6-(5-ethylisoxazol-3-yl)-2,3-dihydrobenzofuran-3-yl)-2-methylisonicotinamide]
800 nM	2600 nM	Cc1cc(-c2ccc3c(c2)OC[C@H]3NC(=O)c2cnn(C)c2)no1 [Compound 426, (S)-1-methyl-N-(6-(5-methylisoxazol-3-yl)-2,3-dihydrobenzofuran-3-yl)-1H-pyrazole-4-carboxamide]
500 nM	1600 nM	Cc1cc(-c2ccc3c(c2)OC[C@H]3NC(=O)c2ccnn2C)no1 [Compound 427, (S)-1-methyl-N-(6-(5-methylisoxazol-3-yl)-2,3-dihydrobenzofuran-3-yl)-1H-pyrazole-5-carboxamide]
1000 nM	3400 nM	Cc1cc(-c2ccc3c(c2)OC[C@H]3NC(=O)c2cnc(C)o2)no1 [Compound 428, (S)-2-methyl-N-(6-(5-methylisoxazol-3-yl)-2,3-dihydrobenzofuran-3-yl)oxazole-5-carboxamide]
500 nM	1500 nM	Cc1cc(-c2ccc3c(c2)OC[C@H]3NC(=O)c2ocnc2C)no1 [Compound 429, (S)-4-methyl-N-(6-(5-methylisoxazol-3-yl)-2,3-dihydrobenzofuran-3-yl)oxazole-5-carboxamide]
1000 nM	3200 nM	Cc1cc(C(=O)N[C@@H]2COc3cc(-c4cc(C)on4)ccc32)ccn1 [Compound 430, (S)-2-methyl-N-(6-(5-methylisoxazol-3-yl)-2,3-dihydrobenzofuran-3-yl)isonicotinamide]
300 nM	900 nM	CCc1cc(-c2ccc3c(c2)CC[C@H]3NC(=O)c2cn[nH]c2C)no1 [Compound 431, (R)—N-(5-(5-ethylisoxazol-3-yl)-2,3-dihydro-1H-inden-1-yl)-5-methyl-1H-pyrazole-4-carboxamide]
800 nM	2500 nM	Cc1cc(-c2ccc3c(c2)CC[C@H]3NC(=O)c2cn[nH]c2C)no1 [Compound 432, (R)-5-methyl-N-(5-(5-methylisoxazol-3-yl)-2,3-dihydro-1H-inden-1-yl)-1H-pyrazole-4-carboxamide]
2600 nM	11300 nM	Cc1nc(-c2ccc3c(c2)CC[C@H]3NC(=O)C(F)F)no1 [Compound 435, (R)-2,2-difluoro-N-(5-(5-methyl-1,2,4-oxadiazol-3-yl)-2,3-dihydro-1H-inden-1-yl)acetamide]
